pIC50: −log10 of the molar value.
Tests used:
[1] = target: Hepatocyte growth factor receptor (Homo sapiens, UniProt P08581)
HT-29 = assay: cells; conditions: Homo sapiens, HT-29, 72 h
[2] = Half life in rat liver microsomes; type: ADME, Microsome
NCI-H460 = assay: cells; conditions: Homo sapiens, NCI-H460, 72 h
MKN-45 = assay: cells; conditions: Homo sapiens, MKN-45, 72 h
cells = conditions: Homo sapiens, U-87 MG, 72 h
[3] = Antitumour activity against human U87MG cells xenografted in athymic nude mouse assessed as tumour growth inhibition at 3 mg/kg, po for 21 days relative to control; type: functional, U87; conditions: U-87 MG, 504 h, time 21 day, read-out: TGI
[4] = Apparent volume of distribution in Sprague-Dawley rat at 5 mg/kg, po up to 24 hrs by LC-MS/MS analysis; type: ADME, organism-based; conditions: in vivo
[5] = Apparent volume of distribution in Sprague-Dawley rat at 1 mg/kg, iv up to 24 hrs by LC-MS/MS analysis; type: ADME, organism-based; conditions: in vivo, read-out: Vz
[6] = Half life in Sprague-Dawley rat at 5 mg/kg, po up to 24 hrs by LC-MS/MS analysis; type: ADME, organism-based; conditions: in vivo
[7] = Clearance in Sprague-Dawley rat at 5 mg/kg, po up to 24 hrs by LC-MS/MS analysis; type: ADME, organism-based; conditions: in vivo
[8] = AUC (0 to infinity) in Sprague-Dawley rat at 5 mg/kg, po up to 24 hrs by LC-MS/MS analysis; type: ADME, organism-based; design: route oral, dose 5 mg/kg, time <=24; conditions: in vivo
[9] = target: T1, Tyrosine-protein kinase receptor UFO (Homo sapiens, UniProt P30530); assay: Inhibition of AXL (unknown origin) using biotin as substrate preincubated for 5 mins followed by substrate addition and measured after 30 to 60 mins by HTRF assay
T1 sequence (P30530 whole entry): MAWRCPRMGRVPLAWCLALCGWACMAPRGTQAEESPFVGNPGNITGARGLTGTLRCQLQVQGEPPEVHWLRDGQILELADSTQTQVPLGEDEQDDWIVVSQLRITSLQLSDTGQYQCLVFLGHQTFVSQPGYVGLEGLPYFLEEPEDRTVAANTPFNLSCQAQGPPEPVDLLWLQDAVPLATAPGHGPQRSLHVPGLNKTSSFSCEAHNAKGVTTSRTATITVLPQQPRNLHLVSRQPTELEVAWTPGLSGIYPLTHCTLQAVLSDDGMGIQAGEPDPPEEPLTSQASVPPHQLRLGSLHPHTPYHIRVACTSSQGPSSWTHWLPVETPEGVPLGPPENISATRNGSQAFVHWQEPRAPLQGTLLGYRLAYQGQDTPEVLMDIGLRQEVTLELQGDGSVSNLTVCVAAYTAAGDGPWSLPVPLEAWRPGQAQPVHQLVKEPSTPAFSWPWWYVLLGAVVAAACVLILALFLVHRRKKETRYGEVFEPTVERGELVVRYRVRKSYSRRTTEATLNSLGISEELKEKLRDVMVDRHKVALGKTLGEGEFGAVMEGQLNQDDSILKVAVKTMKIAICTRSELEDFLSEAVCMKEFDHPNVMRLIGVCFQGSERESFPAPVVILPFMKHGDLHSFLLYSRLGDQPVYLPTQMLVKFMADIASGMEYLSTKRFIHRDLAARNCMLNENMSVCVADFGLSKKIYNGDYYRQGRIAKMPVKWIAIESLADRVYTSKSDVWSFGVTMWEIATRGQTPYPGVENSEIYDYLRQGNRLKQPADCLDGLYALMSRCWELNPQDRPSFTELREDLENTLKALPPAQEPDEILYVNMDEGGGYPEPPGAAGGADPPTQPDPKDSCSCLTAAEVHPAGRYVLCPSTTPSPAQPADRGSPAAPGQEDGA

[10] = Antitumour activity against human U87MG cells xenografted in athymic nude mouse assessed as tumour growth inhibition at 6 mg/kg, po for 21 days relative to control; type: functional, U87; conditions: U-87 MG, 504 h, time 21 day, read-out: TGI
[11] = Oral bioavailability in Sprague-Dawley rat at 5 mg/kg up to 24 hrs by LC-MS/MS analysis; type: ADME, organism-based; conditions: in vivo
[12] = Clearance in Sprague-Dawley rat at 1 mg/kg, iv up to 24 hrs by LC-MS/MS analysis; type: ADME, organism-based; conditions: in vivo
[13] = Tmax in Sprague-Dawley rat at 5 mg/kg, po up to 24 hrs by LC-MS/MS analysis; type: ADME, organism-based; conditions: in vivo
[14] = Antitumour activity against human U87MG cells xenografted in athymic nude mouse assessed as tumour growth inhibition at 37.5 mg/kg, po for 21 days relative to control; type: functional, U87; conditions: U-87 MG, 504 h, time 21 day, read-out: TGI
[15] = Cmax in Sprague-Dawley rat at 1 mg/kg, iv up to 24 hrs by LC-MS/MS analysis; type: ADME, organism-based; design: route intravenous, dose 1 mg/kg, time <=24; conditions: in vivo
animal or person = conditions: Homo sapiens, U-87 MG, po, 504 h, read-out: TGI
[16] = target: Vascular endothelial growth factor receptor 3 (Homo sapiens, UniProt P35916); assay: Inhibition of FLT4 (unknown origin) using biotin as substrate preincubated for 5 mins followed by substrate addition and measured after 30 to 60 mins by HTRF assay
Vascular endothelial growth factor receptor 3, sequence (P35916 whole entry): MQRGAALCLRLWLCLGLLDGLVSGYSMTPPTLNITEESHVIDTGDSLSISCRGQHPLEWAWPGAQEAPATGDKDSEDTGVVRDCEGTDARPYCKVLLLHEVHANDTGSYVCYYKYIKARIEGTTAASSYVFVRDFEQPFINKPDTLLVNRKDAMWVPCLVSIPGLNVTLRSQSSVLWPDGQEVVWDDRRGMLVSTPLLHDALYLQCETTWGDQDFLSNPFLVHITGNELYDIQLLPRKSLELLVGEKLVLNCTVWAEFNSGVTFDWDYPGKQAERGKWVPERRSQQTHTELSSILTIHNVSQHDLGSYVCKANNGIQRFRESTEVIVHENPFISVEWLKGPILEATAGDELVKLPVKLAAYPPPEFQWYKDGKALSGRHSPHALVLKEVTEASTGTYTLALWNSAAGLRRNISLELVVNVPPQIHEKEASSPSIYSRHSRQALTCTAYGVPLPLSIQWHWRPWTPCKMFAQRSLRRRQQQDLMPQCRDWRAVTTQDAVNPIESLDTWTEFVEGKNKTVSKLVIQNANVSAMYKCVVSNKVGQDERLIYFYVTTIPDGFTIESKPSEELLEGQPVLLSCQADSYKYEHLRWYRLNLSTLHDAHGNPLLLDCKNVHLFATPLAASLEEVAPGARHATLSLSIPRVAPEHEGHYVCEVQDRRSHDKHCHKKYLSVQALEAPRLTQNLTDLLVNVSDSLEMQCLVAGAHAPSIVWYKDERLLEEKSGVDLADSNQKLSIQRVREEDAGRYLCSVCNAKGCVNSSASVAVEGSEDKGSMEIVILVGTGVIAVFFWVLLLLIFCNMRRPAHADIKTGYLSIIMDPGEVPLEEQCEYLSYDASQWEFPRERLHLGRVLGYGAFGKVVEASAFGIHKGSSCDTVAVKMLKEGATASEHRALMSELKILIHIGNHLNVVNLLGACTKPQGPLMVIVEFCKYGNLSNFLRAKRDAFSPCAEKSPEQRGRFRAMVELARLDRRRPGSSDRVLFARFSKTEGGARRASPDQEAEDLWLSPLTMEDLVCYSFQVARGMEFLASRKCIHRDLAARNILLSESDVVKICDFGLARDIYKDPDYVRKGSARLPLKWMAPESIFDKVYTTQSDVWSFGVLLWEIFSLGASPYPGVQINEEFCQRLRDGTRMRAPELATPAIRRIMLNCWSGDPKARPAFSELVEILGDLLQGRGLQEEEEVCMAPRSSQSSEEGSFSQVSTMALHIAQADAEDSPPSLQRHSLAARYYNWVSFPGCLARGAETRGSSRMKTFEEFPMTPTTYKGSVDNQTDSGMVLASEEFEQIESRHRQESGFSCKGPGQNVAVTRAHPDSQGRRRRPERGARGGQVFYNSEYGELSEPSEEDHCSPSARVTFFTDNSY

[17] = Half life in Sprague-Dawley rat at 1 mg/kg, iv up to 24 hrs by LC-MS/MS analysis; type: ADME, organism-based; conditions: in vivo
U87 = assay: Antitumour activity against human U87MG cells xenografted in po dosed athymic nude mouse assessed as tumour growth inhibition for 21 days; type: functional, organism-based; conditions: dose 3-37.5 mg/kg, time 21.0 day
Angiopoietin-1 receptor = Angiopoietin-1 receptor (Homo sapiens, UniProt Q02763); assay: Inhibition of TEK (unknown origin) using biotin as substrate preincubated for 5 mins followed by substrate addition and measured after 30 to 60 mins by HTRF assay
Angiopoietin-1 receptor, sequence (Q02763 whole entry): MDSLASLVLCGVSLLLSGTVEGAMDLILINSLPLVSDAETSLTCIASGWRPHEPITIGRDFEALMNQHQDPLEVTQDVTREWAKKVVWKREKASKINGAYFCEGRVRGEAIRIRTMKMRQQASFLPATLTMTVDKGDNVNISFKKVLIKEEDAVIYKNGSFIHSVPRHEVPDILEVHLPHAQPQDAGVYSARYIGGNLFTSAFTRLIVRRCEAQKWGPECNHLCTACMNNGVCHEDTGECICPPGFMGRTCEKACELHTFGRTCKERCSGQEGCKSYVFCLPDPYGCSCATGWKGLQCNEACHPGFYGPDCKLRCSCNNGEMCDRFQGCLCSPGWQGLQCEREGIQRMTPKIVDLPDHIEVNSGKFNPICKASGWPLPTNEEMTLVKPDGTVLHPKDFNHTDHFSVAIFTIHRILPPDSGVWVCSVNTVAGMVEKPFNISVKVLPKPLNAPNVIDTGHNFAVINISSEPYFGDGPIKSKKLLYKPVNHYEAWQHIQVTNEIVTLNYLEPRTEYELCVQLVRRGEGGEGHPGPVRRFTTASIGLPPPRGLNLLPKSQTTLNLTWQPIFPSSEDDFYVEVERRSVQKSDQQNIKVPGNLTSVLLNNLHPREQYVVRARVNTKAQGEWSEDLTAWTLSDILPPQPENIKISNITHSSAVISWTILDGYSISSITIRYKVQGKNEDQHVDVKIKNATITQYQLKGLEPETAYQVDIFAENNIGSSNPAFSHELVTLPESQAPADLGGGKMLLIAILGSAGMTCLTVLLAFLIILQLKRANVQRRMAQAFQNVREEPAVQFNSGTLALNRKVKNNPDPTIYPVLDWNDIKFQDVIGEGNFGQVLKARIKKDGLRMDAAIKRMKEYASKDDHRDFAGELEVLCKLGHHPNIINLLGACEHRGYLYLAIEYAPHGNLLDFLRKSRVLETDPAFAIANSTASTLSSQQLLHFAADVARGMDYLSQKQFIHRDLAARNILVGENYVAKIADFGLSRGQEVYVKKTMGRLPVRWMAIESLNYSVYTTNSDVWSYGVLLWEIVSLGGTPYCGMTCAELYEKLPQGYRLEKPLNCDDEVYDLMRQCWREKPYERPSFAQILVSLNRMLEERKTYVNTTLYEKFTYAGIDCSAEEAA

[18] = Cmax in Sprague-Dawley rat at 5 mg/kg, po up to 24 hrs by LC-MS/MS analysis; type: ADME, organism-based; design: route oral, dose 5 mg/kg, time <=24; conditions: in vivo
[19] = AUC (0 to infinity) in Sprague-Dawley rat at 1 mg/kg, iv up to 24 hrs by LC-MS/MS analysis; type: ADME, organism-based; design: route intravenous, dose 1 mg/kg, time <=24; conditions: in vivo

Hepatocyte growth factor receptor, sequence (P08581 whole entry): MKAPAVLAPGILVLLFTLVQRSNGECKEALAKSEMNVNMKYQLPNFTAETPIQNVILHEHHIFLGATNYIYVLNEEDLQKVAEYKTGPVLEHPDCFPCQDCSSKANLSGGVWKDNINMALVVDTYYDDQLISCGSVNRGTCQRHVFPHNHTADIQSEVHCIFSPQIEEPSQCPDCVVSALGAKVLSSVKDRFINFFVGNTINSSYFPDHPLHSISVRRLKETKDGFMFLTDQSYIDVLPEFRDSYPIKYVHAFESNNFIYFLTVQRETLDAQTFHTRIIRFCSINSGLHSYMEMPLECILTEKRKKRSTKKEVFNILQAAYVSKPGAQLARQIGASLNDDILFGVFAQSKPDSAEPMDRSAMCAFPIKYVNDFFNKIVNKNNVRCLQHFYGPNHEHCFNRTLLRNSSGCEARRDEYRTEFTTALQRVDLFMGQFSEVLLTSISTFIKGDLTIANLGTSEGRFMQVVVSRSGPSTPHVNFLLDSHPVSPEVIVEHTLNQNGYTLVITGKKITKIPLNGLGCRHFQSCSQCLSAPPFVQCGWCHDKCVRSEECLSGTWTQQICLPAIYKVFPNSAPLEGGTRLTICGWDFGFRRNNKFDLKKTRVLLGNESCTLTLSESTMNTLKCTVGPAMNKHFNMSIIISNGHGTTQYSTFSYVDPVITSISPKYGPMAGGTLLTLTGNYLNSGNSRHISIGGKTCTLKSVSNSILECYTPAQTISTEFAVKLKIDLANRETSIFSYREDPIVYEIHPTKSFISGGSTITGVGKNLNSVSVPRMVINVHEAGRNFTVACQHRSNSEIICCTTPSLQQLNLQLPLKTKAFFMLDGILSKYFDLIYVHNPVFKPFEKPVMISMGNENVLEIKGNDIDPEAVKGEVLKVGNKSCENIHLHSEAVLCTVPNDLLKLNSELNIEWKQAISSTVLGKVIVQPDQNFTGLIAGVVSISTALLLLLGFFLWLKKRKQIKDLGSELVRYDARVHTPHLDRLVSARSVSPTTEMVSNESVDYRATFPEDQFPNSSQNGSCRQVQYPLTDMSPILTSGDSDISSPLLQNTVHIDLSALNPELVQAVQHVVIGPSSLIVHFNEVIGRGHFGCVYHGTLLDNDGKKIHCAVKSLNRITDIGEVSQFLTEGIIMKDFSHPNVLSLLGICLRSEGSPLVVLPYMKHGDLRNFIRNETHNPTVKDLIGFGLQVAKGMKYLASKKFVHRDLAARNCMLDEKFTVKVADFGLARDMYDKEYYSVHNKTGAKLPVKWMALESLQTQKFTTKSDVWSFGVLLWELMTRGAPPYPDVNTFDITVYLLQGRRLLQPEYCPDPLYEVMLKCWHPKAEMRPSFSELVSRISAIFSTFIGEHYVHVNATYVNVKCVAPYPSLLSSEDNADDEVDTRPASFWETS

Structure (SMILES)	pIC50 [1]	pIC50 (HT-29)	half-life [2] [h]	pIC50 (NCI-H460)	pIC50 (MKN-45)	pIC50 (cells)	other results
Cc1[nH]c2ccnc(Nc3ccc(Oc4ccnc5cc(OCC(C)(C)O)ccc45)c(F)c3)c2c(=O)c1-c1ccccc1	7.39						
COCCOc1cc2nccc(Oc3ccc(Nc4nccc5[nH]cc(-c6ccc(F)cc6)c(=O)c45)cc3F)c2cc1OC	7.08	5.34	1.06	5.52	5.51	5.28	
COCCOc1ccc2c(Oc3ccc(Nc4nccc5[nH]cc(-c6ccc(F)cc6)c(=O)c45)cc3F)ccnc2c1	8.08	5.19	1.73	5.37	5.25	5.29	
COCCOc1cc2nccc(Oc3ccc(Nc4nccc5[nH]cc(-c6ccccc6)c(=O)c45)cc3F)c2cc1OC	8.11						
O=c1c(-c2ccc(F)cc2)c[nH]c2ccnc(Nc3ccc(Oc4ccnc5cc(O)ccc45)c(F)c3)c12	8.30	5.23	0.893	4.37	5.30	5.14	
O=c1c(-c2ccc(F)cc2)c[nH]c2ccnc(Nc3ccc(Oc4ccnc5cc(OCCO)ccc45)c(F)c3)c12		5.26	1.51	5.46	5.33	5.31	
COC(C)(C)COc1ccc2c(Oc3ccc(Nc4nccc5[nH]cc(-c6ccc(F)cc6)c(=O)c45)cc3F)ccnc2c1	7.88	5.32	1.45	5.36	5.26	4.79	
COc1cc2c(Oc3ccc(Nc4nccc5[nH]cc(-c6ccc(F)cc6)c(=O)c45)cc3F)ccnc2cc1OCC(C)(C)OC	7.92						
O=c1c(-c2ccccc2)c[nH]c2ccnc(Nc3ccc(Oc4ccnc5cc(OCCCN6CCOCC6)ccc45)c(F)c3)c12			0.297				
COc1cc2c(Oc3ccc(Nc4nccc5[nH]cc(-c6ccc(F)cc6)c(=O)c45)cc3F)ccnc2cc1OCC(C)C	7.71						
CC(C)COc1ccc2c(Oc3ccc(Nc4nccc5[nH]cc(-c6ccc(F)cc6)c(=O)c45)cc3F)ccnc2c1	7.56		1.5				
COc1cc2c(Oc3ccc(Nc4nccc5[nH]cc(-c6ccc(F)cc6)c(=O)c45)cc3F)ccnc2cc1OCC(C)(C)O		5.68	5.17	5.77	5.85	5.59	
CC(O)COc1ccc2c(Oc3ccc(Nc4nccc5[nH]cc(-c6ccc(F)cc6)c(=O)c45)cc3F)ccnc2c1 (stereo not given)	6.88	5.41	1.42	5.47	5.51	5.07	
COc1cc2nccc(Oc3ccc(Nc4nccc5[nH]cc(-c6ccc(F)cc6)c(=O)c45)cc3F)c2cc1OC	7.12						
O=c1c(-c2ccc(F)cc2)c[nH]c2ccnc(Nc3ccc(Oc4ccnc5cc(OCCN6CCOCC6)ccc45)c(F)c3)c12			0.11				
CC(C)(O)COc1ccc2c(Oc3ccc(Nc4nccc5[nH]cc(-c6ccc(F)cc6)c(=O)c45)cc3F)ccnc2c1		5.47	4.14	5.49	5.57	5.33	
COc1cc2c(Oc3ccc(Nc4nccc5[nH]cc(-c6ccc(F)cc6)c(=O)c45)cc3F)ccnc2cc1OCCO	8.24	5.54	1.48	5.70	5.80	5.39	
CC(C)(O)COc1ccc2c(Oc3ccc(Nc4nccc5[nH]cc(-c6ccccc6)c(=O)c45)cc3F)ccnc2c1		5.38	5.37	5.44	5.54	5.35	inhibition in vivo at 3 mg/kg [3]: 47%; Vz [4]: 3.3 L/kg; Vd [5]: 0.9 L/kg; half-life [6]: 4.9 h; CL/F [7]: 8.33 mL/min/kg; AUC(0-inf) [8]: 10700 ng·h/mL; pIC50 [9]: 7.49; inhibition in vivo at 6 mg/kg [10]: 57%; bioavailability [11]: 32%; clearance [12]: 3.33 mL/min/kg; Tmax [13]: 4 h; inhibition in vivo at 37.5 mg/kg [14]: 172%; Cmax [15]: 500 ng/mL; inhibition in vivo at 12.5 mg/kg (animal or person): 131%; pIC50 [16]: 6.94; half-life [17]: 4 h; TGI (U87): Dose-dependent effect; pIC50 (Angiopoietin-1 receptor): 7.72; Cmax [18]: 1500 ng/mL; AUC(0-inf) [19]: 6600 ng·h/mL

— ChEMBL document CHEMBL4680210, “Discovery of 1,6-naphthyridinone-based MET kinase inhibitor bearing quinoline moiety as promising antitumor drug candidate” (Eur J Med Chem, 2020)
